A short description of series [1]: Aqueous solubility. In kind it is physicochemical. The settings on record: in water.
The nature of series [2]: Gravimetric vapour sorption (GVS) analysis, hygroscopicity. The series is classed as physicochemical. Particulars: mass change between 40% and 80% relative humidity, first adsorption scan, 25° C. The protocol: Gravimetric Vapour Sorption (GVS) Analysis:
Measurements were performed simultaneously for the COMPOUND in the crystalline form A, B, and C on a multi sample instrument SPS-100n (Projekt Messtechnik, Ulm, Germany) operated in stepping mode at 25° C.

These results are taken from patent publication US11834443B2, “Crystalline form of the compound (s)-3-{4-[5-(2-cyclopentyl-6-methoxy-pyridin-4-yl)-[1,2,4]oxadiazol-3-yl]-2-ethyl-6-methyl-phenoxy}-propane-1,2-diol” (Idorsia Pharmaceuticals Ltd, priority 2015, dated 2023).

≈ marks a conversion by molar mass, not a printed value.

By solubility is commonly meant the concentration that dissolves in the medium under given conditions. As to `CCc1cc(-c2noc(-c3cc(OC)nc(C4CCCC4)c3)n2)cc(C)c1OC[C@@H](O)CO` [COMPOUND, (S)-3-{4-[5-(2-cyclopentyl-6-methoxy-pyridin-4-yl)-[1,2,4]oxadiazol-3-yl]-2-ethyl-6-methyl-phenoxy}-propane-1,2-diol], the solubility in series [1] was roughly 0.06 µg/mL (≈ 0.132 µM).
Take `CCc1cc(-c2noc(-c3cc(OC)nc(C4CCCC4)c3)n2)cc(C)c1OC[C@@H](O)CO` [Form A, (S)-3-{4-[5-(2-cyclopentyl-6-methoxy-pyridin-4-yl)-[1,2,4]oxadiazol-3-yl]-2-ethyl-6-methyl-phenoxy}-propane-1,2-diol]: in series [2], the “hygroscopic classification (European Pharmacopeia Technical Guide)” value is “Non-hygroscopic” and the mass gain entry was “less than 0.2%”.
The like results for `CCc1cc(-c2noc(-c3cc(OC)nc(C4CCCC4)c3)n2)cc(C)c1OC[C@@H](O)CO` [Form B, (S)-3-{4-[5-(2-cyclopentyl-6-methoxy-pyridin-4-yl)-[1,2,4]oxadiazol-3-yl]-2-ethyl-6-methyl-phenoxy}-propane-1,2-diol] were, in that order, “Slightly hygroscopic” and 0.5%.
The like results for `CCc1cc(-c2noc(-c3cc(OC)nc(C4CCCC4)c3)n2)cc(C)c1OC[C@@H](O)CO` [Form C, (S)-3-{4-[5-(2-cyclopentyl-6-methoxy-pyridin-4-yl)-[1,2,4]oxadiazol-3-yl]-2-ethyl-6-methyl-phenoxy}-propane-1,2-diol] were, in that order, “Slightly hygroscopic” and 0.8%.
